The results in this text go back to patent US8278436B2, “Glycosylated warfarin analogs and uses thereof” (priority 2008, dated 2012).

pIC50: −log10 of the molar value. Like-named read-outs stand apart in the source and are kept apart here.

Common to all, as to assay type: cell-based
In assay [1] the test system is A549 human lung adenocarcinoma cells. Put plainly: cell proliferation assay, A549. Conditions: read-out: A549 Lung (+p53). The source says:
(§1) In this Example, the warfarin neoglycosides of the invention were screened for anti-tumor activity in cell proliferation assays using the following tumor cells lines: A549—human lung adenocarcinoma; H1299—human lung adenocarcinoma (p53 null); HCT-15—human colorectal adenocarcinoma; HT-29—human colorectal adenocarcinoma; MCF7—human breast adenocarcinoma; NCI-H460—human lung adenocarcinoma; SF-268—human CNS adenocarcinoma; and SKOV-3—human ovarian adenocarcinoma.
(§2) All cell lines were maintained as previously reported (see Langenhan, J. M.; Peters, N. R.; Guzei, I. A.; Hoffmann, F. M.; Thorson, J. S. Proc. Natl. Acad. Sci. USA 2005, 102, 12305-12310, which is incorporated by reference herein). Cells were harvested using 0.25% trypsin and 0.1% EDTA and counted in a Cellometer Auto T4 cell counter (Nexcelom, Inc.) prior to dilution for assay plating. Cells were plated at a denity of 500 cells per well in 50 μL volumes in 384-well clear-bottom tissue culture plates (Corning-Costar, Inc.).
(§3) Compounds were added from the 384-well compound stock plates at a 1:100 dilution using a Biomek FX liquid handler equipped with a 384-channel head (Beckman Coulter, Inc.). The plates were incubated for 7 days at 37° C. in a 5% CO2 atmosphere prior to performing the assays. Calcein AM (acetoxymethyl ester) reagent and EthD-1 (30 μL, 10 μM CAM and 100 μM EthD-1) was added and the cells were incubated for 30 min at 37° C. […] resulting from incubation with Calcein AM and EthD-1 was read using a Safire-2 microplate reader at the appropriate wavelengths. To lyse the cells, 15 μL of CellTiter-Glo reagent (Promega Corporation, Inc.) was added and the cells were incubated for 10 min at room temperature with gentle agitation. The luminescence of each plate was re-read to confirm the observed inhibition.
(§4) IC50s for cell proliferation assays were determined for Calcein AM, the ratio of live/dead cells (Calcein AM/EthD-1), and CellTiter-Glo using XLfit 4.0 as previously described (see Langenhan, J. M.; Peters, N. R.; Guzei, I. A.; Hoffmann, F. M.; Thorson, J. S. Proc. Natl. Acad. Sci. USA 2005, 102, 12305-12310, which is incorporated by reference herein). The IC50 determined using the best fit curve for dosage response from any of the 3 assays is reported as the final IC50. The best fit curve is defined as the curve with the lowest standard error.

For assay [2], the system named is HCT-15 human colorectal adenocarcinoma cells. In words: cell proliferation assay, HCT-15. The settings on record: for pIC50: Table 3 summary of most active compounds, IC50, read-out: HCT15 Colorectal.
Excerpt: as §1, §2, §3, §4

Assay [3] relates to HT-29 human colorectal adenocarcinoma cells. Put plainly: cell proliferation assay, HT-29.
Excerpt: as §1, §2, §3, §4

The test system of assay [4] is MCF7 human breast adenocarcinoma cells. In words: cell proliferation assay, MCF7.
Excerpt: as §1, §2, §3
(§5) IC50s for cell proliferation assays were determined for Calcein AM, the ratio of live/dead cells (Calcein AM/EthD-1), and CellTiter-Glo using XLfit 4.0 as previously described (see Langenhan, J. M.; Peters, N. R.; Guzei, I. A.; Hoffmann, F. M.; Thorson, J. S. Proc. Natl. Acad. Sci. USA 2005, 102, 12305-12310, which is incorporated by reference herein). The IC50 determined using the best fit curve for dosage response from any of the 3 assays is reported as the final IC50.

For assay [5], the system named is NCI/ADR-RES. In words: cell proliferation assay, NCI/ADR-RES. The settings on record: Table 3 summary of most active compounds. As for the experimental part:
as §2, §3, §5

Assay [6] deals with NCI-H460 human lung adenocarcinoma cells. Put plainly: cell proliferation assay, NCI-H460.
Excerpt: as §1, §2, §3, §4

The test system of assay [7] is SF-268 human CNS adenocarcinoma cells. Put plainly: cell proliferation assay, SF-268.
Excerpt: as §1, §2, §3, §5

In assay [8] the test system is SKOV-3 human ovarian adenocarcinoma cells. In words: cell proliferation assay, SKOV-3. The settings on record: read-out: SKOV3 Ovarian.
Excerpt: as §1, §2, §3, §4

Assay [9] deals with H1299 human lung adenocarcinoma (p53 null) cells. Put plainly: cell proliferation assay, H1299. Conditions: Table 3 summary of most active compounds.
Excerpt: as §1, §2, §3, §5

Setting [10] is: Table 3 summary of most active compounds, listed as L-ribose.
[11] abbreviates: Table 3 summary of most active compounds.
The mark [12] stands for this setting: Table 3 summary of most active compounds, IC50, read-out: H729 Colorectal.
[13] abbreviates: Table 3 summary of most active compounds, IC50, read-out: SF268 Giloblast.
[14] abbreviates: Table 3 summary of most active compounds, listed as D-ribose.
Setting [15] is: Table 3 summary of most active compounds, listed as D-lyxose.
[16] abbreviates: Table 3 summary of most active compounds, listed as L-xylose.

On to `CON(C(C)CC(c1ccccc1)c1c(O)c2ccccc2oc1=O)C1OCC(O)C(O)C1O` (mixture of isomers) [WARF Analog 25], for which the pIC50 in assay [1] (setting [10]) was 4.14; in [2] (listed as L-ribose), 4.43; in assay [3] (Table 3 summary of most active compounds, IC50, listed as L-ribose, read-out: H729 Colorectal), 4.14; in assay [4] (setting [10]), 4.35; in [5] (listed as L-ribose), 4.21; in assay [6] (setting [10]), below 4.00. Also, the pIC50 in [7] (Table 3 summary of most active compounds, IC50, listed as L-ribose, read-out: SF268 Giloblast) was below 4.00; in assay [8] (setting [10]) it was 4.22.

Turning to `CON(C(C)CC(c1ccccc1)c1c(O)c2ccccc2oc1=O)C1C[C@@H](O)[C@@H](O)CO1` (some centres unmarked) [WARF Analog 10], the pIC50 was below 4.00 in assay [1] (setting [11]); 4.11 in assay [9]; 4.92 in assay [2]; 4.06 in assay [3] (setting [12]); 4.18 in [4] (setting [11]); 4.04 in [5]. The pIC50 in assay [6] (setting [11]), in assay [7] (setting [13]) and in assay [8] (setting [11]) was below 4.00 throughout.

On to `CON(C(C)CC(c1ccccc1)c1c(O)c2ccccc2oc1=O)C1OCC(O)C(O)C1O` (mixture of isomers) [WARF Analog 22], for which the pIC50 in assay [1] (setting [14]) is below 4.00; in [9] (listed as D-ribose) it was 4.36; in assay [2] (listed as D-ribose), 4.57; in assay [3] (Table 3 summary of most active compounds, IC50, listed as D-ribose, read-out: H729 Colorectal), 4.11; in assay [4] (setting [14]), 4.39; in [5] (listed as D-ribose), 4.18. For the same compound, the pIC50 in assay [6] (setting [14]) was below 4.00; in [7] (Table 3 summary of most active compounds, IC50, listed as D-ribose, read-out: SF268 Giloblast), 4.14; in [8] (setting [14]) it was 4.22.

For the compound `CC(=O)CC(c1ccccc1)c1c(O)c2ccccc2oc1=O` (centres unmarked) [WARF Analog A, 4-hydroxy-3-(3-oxo-1-phenylbutyl)-2H-1-benzopyran-2-one, reference compound], the pIC50 in assay [1] (Homo sapiens, A549, Table 3 summary of most active compounds) was 3.11; in [2] (Homo sapiens, HCT-15), 3.27; in [3] (Homo sapiens, HT-29, read-out: H729 Colorectal), 3.13; in assay [4] (Homo sapiens, MCF7, Table 3 summary of most active compounds), 3.52; in assay [5] (Homo sapiens), below 4.00; in assay [6] (Homo sapiens, NCI-H460, Table 3 summary of most active compounds), 3.25. In addition, the pIC50 in assay [7] (Homo sapiens, SF-268, read-out: SF268 Giloblast) was 3.12; in assay [8] (Homo sapiens, SK-OV-3, Table 3 summary of most active compounds), 3.41.

Consider `CON(C(C)CC(c1ccccc1)c1c(O)c2ccccc2oc1=O)C1OCC(O)C(O)C1O` (mixture of isomers) [WARF Analog 6], for which the pIC50 in [1] (setting [15]) was 4.12; in assay [2] (listed as D-lyxose) it was 5.15; in assay [3] (Table 3 summary of most active compounds, IC50, listed as D-lyxose, read-out: H729 Colorectal), 4.28; in assay [5] (listed as D-lyxose) it was 4.24; in [6] (setting [15]), below 4.00; in [7] (Table 3 summary of most active compounds, IC50, listed as D-lyxose, read-out: SF268 Giloblast), 4.41. Besides, the pIC50 in [8] (setting [15]) is 4.33. Also, in assay [2] (HCT 15 colorectal cell lines, compared with all the neoglycosides tested), the “level of activity, in words” value is on record as “highest level of activity”.

On to `CON(C(C)CC(c1ccccc1)c1c(O)c2ccccc2oc1=O)C1OCC(O)C(O)C1O` (mixture of isomers) [WARF Analog 1], for which the pIC50 in assay [1] (setting [16]) was 4.17; in assay [9] (listed as L-xylose), 4.52; in [2] (listed as L-xylose), 4.85; in assay [3] (Table 3 summary of most active compounds, IC50, listed as L-xylose, read-out: H729 Colorectal), 4.43; in assay [4] (setting [16]) it was 4.82; in assay [5] (listed as L-xylose), 4.30. The pIC50 in [6] (setting [16]) is below 4.00; in assay [8] (setting [16]), 4.35.

As to `CON(C(C)CC(c1ccccc1)c1c(O)c2ccccc2oc1=O)C1O[C@H](COCc2ccccc2)[C@@H](OCc2ccccc2)[C@@H]1OCc1ccccc1` (some centres unmarked) [WARF Analog 42], the pIC50 in assay [1] (setting [11]) was 4.57; in [9] it was 4.72; in assay [2] it was 4.96; in assay [3] (setting [12]), 4.72; in [4] (setting [11]) it was 4.54; in [5], 4.70. In addition, the pIC50 in assay [7] (setting [13]) is 4.70; in assay [8] (setting [11]) it was 4.57.

For the compound `CON(C(C)CC(c1ccccc1)c1c(O)c2ccccc2oc1=O)C1OC(C)C(O)C(O)C1O` (mixture of isomers) [WARF Analog 50], the pIC50 in assay [1] (setting [11]) was below 4.00; in [2] (listed as 6-deoxy-D-glucose), 4.85; in assay [3] (Table 3 summary of most active compounds, IC50, listed as 6-deoxy-D-glucose, read-out: H729 Colorectal) it was below 4.00; in assay [5], below 4.00; in assay [6] (setting [11]), below 4.00; in [7] (Table 3 summary of most active compounds, IC50, listed as 6-deoxy-D-glucose, read-out: SF268 Giloblast) it was below 4.00. Besides, the pIC50 in assay [8] (Table 3 summary of most active compounds, listed as 6-deoxy-D-glucose) is below 4.00.
